Six compounds from patent US8236822B2, “Compounds as cannabinoid receptor ligands” (Abbott Laboratories, priority 2009, dated 2012) can be followed below.

Structures are written as SMILES. Where two headings read alike, the source gives them in different places.

One experiment addresses T1, human CB2 receptors (Homo sapiens, UniProt P34972).
T1 construct: expressed in transfected cells; host or cells: HEK293
Description: human CB2 radioligand binding assay ([3H]CP-55,940 competition). As for the experimental part: (§1) In Vitro Methods—CB2 and CB1Radioligand Binding Assays:
(§2) The CB1 and CB2 radioligand binding assays described herein are utilized to ascertain the selectivity of compounds of the present application for binding to CB2 relative to CB′ receptors.
(§3) HEK293 cells stably expressing human CB2 receptors were grown until a confluent monolayer was formed. Briefly, the cells were harvested and homogenized in TE buffer (50 mM Tris-HCl, 1 mM MgCl2, and 1 mM EDTA) using a polytron for 2×10 second bursts in the presence of protease inhibitors, followed by centrifugation at 45,000×g for 20 minutes. The final membrane pellet was re-homogenized in storage buffer (50 mM Tris-HCl, 1 mM MgCl2, and 1 mM EDTA and 10% sucrose) and frozen at −78° C. until used. Saturation binding reactions were initiated by the addition of membrane preparation (protein concentration of 5 μg/well for human CB2) into wells of a deep well plate containing [^3H]CP-55,940 (120 Ci/mmol, a nonselective CB agonist commercially available from Tocris) in assay buffer (50 mM Tris, 2.5 mM EDTA, 5 mM MgCl2, and 0.5 mg/mL fatty acid free BSA, pH 7.4). After 90 min incubation at 30° C., binding reaction was terminated by the addition of 300 μL/well of cold assay buffer followed by rapid vacuum filtration through a UniFilter-96 GF/C filter plates (pre-soaked in 1 mg/mL BSA for 2 hours). The bound activity was counted in a TopCount using Microscint-20. Saturation experiments were conducted with twelve concentrations of [^3H]CP-55,940 ranging from 0.01 to 8 nM. Competition experiments were conducted with 0.5 nM [^3H]CP-55,940 and five concentrations (0.01 nM to 10 μM) of displacing ligands. The addition of 10 μM unlabeled CP-55,940 (Tocris, Ellisville, Mo.) was used to assess nonspecific binding.

Another experiment has as its target T2, rat CB2 receptors (Rattus norvegicus, UniProt Q9QZN9).
T2 construct: expressed in transfected cells; host or cells: HEK293
T2 sequence (Q9QZN9 1-360): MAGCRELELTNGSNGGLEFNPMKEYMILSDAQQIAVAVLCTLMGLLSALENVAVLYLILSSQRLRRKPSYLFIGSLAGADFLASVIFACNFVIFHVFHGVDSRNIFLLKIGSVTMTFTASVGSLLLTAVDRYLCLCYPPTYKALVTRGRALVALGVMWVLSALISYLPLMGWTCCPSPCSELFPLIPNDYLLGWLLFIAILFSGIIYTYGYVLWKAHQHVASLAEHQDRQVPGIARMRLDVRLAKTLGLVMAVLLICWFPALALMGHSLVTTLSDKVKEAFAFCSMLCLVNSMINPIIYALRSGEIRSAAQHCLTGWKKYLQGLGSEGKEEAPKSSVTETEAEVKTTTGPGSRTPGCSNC
The experiment is described as follows: rat CB2 radioligand binding assay ([3H]CP-55,940 competition). As to the method:
as §1, §2
as §3, with “expressing rat” for “expressing human”, “of 20” for “of 5”, “for rat” for “for human”, “After 45” for “After 90”, “concentrations of displacing ligands selected from the range of 0.01” for “concentrations (0.01”, “10 μM.” for “10 μM) of displacing ligands.”

T1 sequence (P34972 whole entry): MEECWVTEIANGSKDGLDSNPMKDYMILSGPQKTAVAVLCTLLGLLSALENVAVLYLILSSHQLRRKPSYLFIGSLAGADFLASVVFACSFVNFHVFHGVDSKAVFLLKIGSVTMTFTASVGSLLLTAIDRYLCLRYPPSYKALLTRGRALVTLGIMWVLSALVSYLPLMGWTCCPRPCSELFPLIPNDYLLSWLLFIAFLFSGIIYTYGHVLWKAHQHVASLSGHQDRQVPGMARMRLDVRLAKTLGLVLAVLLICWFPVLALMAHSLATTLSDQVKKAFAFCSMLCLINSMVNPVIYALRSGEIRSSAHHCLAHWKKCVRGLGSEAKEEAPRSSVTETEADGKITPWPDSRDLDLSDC

As for `Cn1c(C(C)(C)C)c/c(=N\C(=O)c2cc(C(F)(F)F)ccc2OCCNC(C)(C)C)n1CC1CC1` [Example 1, 2-[2-(tert-butylamino)ethoxy]-N-[(3E)-5-tert-butyl-2-(cyclopropylmethyl)-1-methyl-1,2-dihydro-3H-pyrazol-3-ylidene]-5-(trifluoromethyl)benzamide], the Ki – broadly, the equilibrium dissociation constant of an inhibitor or competing ligand from its target – at human CB2 receptors was determined as 123 nM; on rat CB2 receptors it was 44.2 nM.

`Cn1c(C(C)(C)C)c/c(=N\C(=O)c2cc(C(F)(F)F)ccc2OC2CN(C(C)(C)C)C2)n1CC1CC1` [Example 2, 2-[(1-tert-butylazetidin-3-yl)oxy]-N-[(3E)-5-tert-butyl-2-(cyclopropylmethyl)-1-methyl-1,2-dihydro-3H-pyrazol-3-ylidene]-5-(trifluoromethyl)benzamide] registered a Ki on rat CB2 receptors of 459 nM.

Consider `CCCCn1nc(C(C)(C)C)s/c1=N\C(=O)c1cc(C(F)(F)F)ccc1OC1CN(C(C)(C)C)C1` [Example 3, 2-[(1-tert-butylazetidin-3-yl)oxy]-N-[(2Z)-3-butyl-5-tert-butyl-1,3,4-thiadiazol-2(3H)-ylidene]-5-(trifluoromethyl)benzamide], for which the Ki amounted to 46.4 nM at human CB2 receptors and 29.1 nM at rat CB2 receptors.

In the case of `CCCCn1/c(=N/C(=O)c2cc(C(F)(F)F)ccc2OCCNC(C)(C)C)cc(C(C)(C)C)n1C` [Example 4, 2-[2-(tert-butylamino)ethoxy]-N-[(3E)-2-butyl-5-tert-butyl-1-methyl-1,2-dihydro-3H-pyrazol-3-ylidene]-5-(trifluoromethyl)benzamide], the Ki on rat CB2 receptors (HEK293 membranes expressing rat CB2, 0.5 nM [3H]CP-55,940, read-out: rat CB2 binding (Ki)) came out at 104 nM.

On to `Cn1c(C(C)(C)C)c/c(=N\C(=O)c2cc(C(F)(F)F)ccc2OCCNC(C)(C)C)n1CC1CCC1` [Example 5, 2-[2-(tert-butylamino)ethoxy]-N-[(3E)-5-tert-butyl-2-(cyclobutylmethyl)-1-methyl-1,2-dihydro-3H-pyrazol-3-ylidene]-5-(trifluoromethyl)benzamide], for which affinity on human CB2 receptors was put at a Ki of 199 nM.

At rat CB2 receptors, `CN1CC[C@H](Oc2ccc(C(F)(F)F)cc2C(=O)/N=c2\cc(C(C)(C)C)n(C)n2CC2CCC2)C1` [Example 6, N-[(3E)-5-tert-butyl-2-(cyclobutylmethyl)-1-methyl-1,2-dihydro-3H-pyrazol-3-ylidene]-2-{[(3S)-1-methylpyrrolidin-3-yl]oxy}-5-(trifluoromethyl)benzamide] had a Ki of 420 nM.
